Source: patent US20240058334A1, “METHODS FOR TREATING SMALL CELL LUNG CANCER AND OTHER NEUROENDOCRINE CANCERS” (AstraZeneca AB, priority 2021, published 2024)

Test system: SCLC cell lines
Experiment: 96 hr proliferation assay in SCLC cell lines
Format: cell-based
Conditions: for response to single agent ATR inhibitor: the three cell lines with greater than additive response to the combination, SLFN11 low group

## COc1ccc2[nH]c3c(c2c1)CCN[C@]31CS[C@@H]2c3c(OC(C)=O)c(C)c4c(c3[C@H](COC1=O)N1[C@@H]2[C@H]2c3c(cc(C)c(OC)c3O)C[C@@H]([C@@H]1O)N2C)OCO4 [lurbinectedin]
Cells with low expression of SLFN11 (FIG. 1)
  lurbinectedin IC50 values: higher

## C[C@@H]1COCCN1c1cc(C2([S@](C)(=N)=O)CC2)nc(-c2cc[nH]c3nccc2-3)n1 [ceralasertib]
  response to single agent ATR inhibitor: relatively resistant

## CNCc1ccc(-c2cc(-c3nc(-c4ccc(S(=O)(=O)C(C)C)cc4)cnc3N)on2)cc1 [berzosertib]
  response to single agent ATR inhibitor: relatively resistant
